Source: article PMC6105598, “Targeting protein-protein interactions for therapeutic discovery via FRET-based high-throughput screening in living cells” (Scientific Reports, 2018)
Where “and” joins values, the source holds several entries; their conditions need not be identical. Equal entries are not always repeated. Where two headings read alike, the source gives them in different places.

Assays:
[1] = biological target: T1, skeletal SR (SERCA1a only) (Oryctolagus cuniculus, UniProt P04191); experiment: Ca-ATPase activity of skeletal SR (SSR), NADH-linked enzyme-coupled assay; type: biochemical, rabbit; conditions: for EC50 / Vmax @ 30 µM / ΔVmax @ 30 µM / percent change in Vmax vs DMSO control at 30 µM: SSR; for Vmax @ 30 µM / ΔVmax @ 30 µM / percent change in Vmax vs DMSO control at 30 µM: 30 µM compound; for ΔVmax @ 30 µM / percent change in Vmax vs DMSO control at 30 µM: relative to DMSO control; for percent change in Vmax vs DMSO control at 30 µM: read-out: ΔVmax @ 30 µM
T1 construct: Skeletal muscle SR membrane vesicles were isolated from longissimus dorsi obtained from New Zealand white rabbits; from tissue; host or cells: rabbit longissimus dorsi skeletal muscle, SR membrane vesicles
Procedure: (§1) To further examine the functional effects of Hit compounds, Ca-ATPase assays were performed on both skeletal SR (SERCA1a only) and cardiac SR (SERCA2a + PLB) at a series of Ca concentrations ranging from pCa 5 to 8.
(§2) Skeletal muscle SR membrane vesicles were isolated from longissimus dorsi obtained from New Zealand white rabbits, as previously described. Cardiac SR membrane vesicles were isolated from ventricular myocardium obtained from fresh pig hearts. All experimental protocols were reviewed and approved by University of Minnesota’s Institutional Animal Care and Use Committee, an Association for Assessment and Accreditation of Laboratory Animal Care institution.
(§3) An enzyme-coupled, NADH-linked ATPase assay was used to measure SERCA ATPase activity in 96-well microplates. Each well contained 0.8 μg (skeletal) or 2 μg (cardiac) of SR vesicles adjusted for the different SERCA contents of skeletal and cardiac SR, 50 mM MOPS (pH 7.0), 100 mM KCl, 5 mM MgCl2, 1 mM EGTA, 0.2 mM NADH, 1 mM phosphoenol pyruvate, 10 IU/mL of pyruvate kinase, 10 IU/mL of lactate dehydrogenase, 3.5 μg/mL of the Ca ionophore A23187, and CaCl2 added to set free [Ca] to the desired values. The assay was started upon the addition of ATP at a final concentration of 5 mM and read in a SpectraMax Plus microplate spectrophotometer rom Molecular Devices (Sunnyvale, CA).

[2] = biological target: SERCA2a-PLB complex (GFP-SERCA2a / RFP-PLB in HEK293 cells) (Homo sapiens, UniProt P16615+P26678, C36A/C41F/C46A); experiment: SERCA2a-PLB TR-FRET (fluorescence lifetime) biosensor assay in living cells; type: cell-based; design: expressed in transfected cells; host or cells: HEK293; conditions: for ΔFLT: compound incubation for 20 min, uncertainty (1 S.D.) 11 ps; for direction of FRET change of the SERCA2a-PLB biosensor: concentration-response 0.01-100 µM
[3] = biological target: T2, cardiac SR (SERCA2a + PLB) (Sus scrofa, UniProt P11607); experiment: Ca-ATPase activity of cardiac SR (CSR), NADH-linked enzyme-coupled assay; type: biochemical, pig; conditions: for Vmax @ 30 µM / ΔVmax @ 30 µM: 30 µM compound; for ΔVmax @ 30 µM: relative to DMSO control
T2 construct: Cardiac SR membrane vesicles were isolated from ventricular myocardium obtained from fresh pig hearts; from tissue; host or cells: pig ventricular myocardium, SR membrane vesicles
Procedure: as §1, with “To characterize the relationship between the structural readout (FRET) and the functional effects, in vitro Ca-ATPase assays were performed on cardiac SR (which contains both SERCA2a and PLB). […] To” for “To”
as §2, §3

[4] = biological target: GFP-SERCA2a (eGFP fused to the N-terminus of human cardiac sarcoplasmic reticulum Ca-ATPase SERCA2a) (human) (UniProt P16615); experiment: FRET or BRET; time-resolved FRET (donor fluorescence lifetime) in saponin-permeabilized HEK293 cells, high Ca (10 µM); also tested with 100 nM thapsigargin, which prevents the Ca-dependent decrease in FRET
[5] = biological target: GFP-SERCA2a (eGFP fused to the N-terminus of human cardiac sarcoplasmic reticulum Ca-ATPase SERCA2a) (human) (UniProt P16615); experiment: FRET or BRET; time-resolved FRET (donor fluorescence lifetime, plate reader) in live HEK293 cells co-expressing GFP-SERCA2a (donor) and increasing amounts of RFP-PLB (acceptor); value at saturating acceptor
[6] = biological target: GFP-SERCA2a (eGFP fused to the N-terminus of human cardiac sarcoplasmic reticulum Ca-ATPase SERCA2a) (human) (UniProt P16615); experiment: FRET or BRET; time-resolved FRET (donor fluorescence lifetime) in saponin-permeabilized HEK293 cells, low Ca (100 nM); also tested with 100 nM thapsigargin
[7] = concentration-response 0.01-100 µM compound, live HEK293 cells

T2 sequence (P11607 1-997 isoform P11607-2): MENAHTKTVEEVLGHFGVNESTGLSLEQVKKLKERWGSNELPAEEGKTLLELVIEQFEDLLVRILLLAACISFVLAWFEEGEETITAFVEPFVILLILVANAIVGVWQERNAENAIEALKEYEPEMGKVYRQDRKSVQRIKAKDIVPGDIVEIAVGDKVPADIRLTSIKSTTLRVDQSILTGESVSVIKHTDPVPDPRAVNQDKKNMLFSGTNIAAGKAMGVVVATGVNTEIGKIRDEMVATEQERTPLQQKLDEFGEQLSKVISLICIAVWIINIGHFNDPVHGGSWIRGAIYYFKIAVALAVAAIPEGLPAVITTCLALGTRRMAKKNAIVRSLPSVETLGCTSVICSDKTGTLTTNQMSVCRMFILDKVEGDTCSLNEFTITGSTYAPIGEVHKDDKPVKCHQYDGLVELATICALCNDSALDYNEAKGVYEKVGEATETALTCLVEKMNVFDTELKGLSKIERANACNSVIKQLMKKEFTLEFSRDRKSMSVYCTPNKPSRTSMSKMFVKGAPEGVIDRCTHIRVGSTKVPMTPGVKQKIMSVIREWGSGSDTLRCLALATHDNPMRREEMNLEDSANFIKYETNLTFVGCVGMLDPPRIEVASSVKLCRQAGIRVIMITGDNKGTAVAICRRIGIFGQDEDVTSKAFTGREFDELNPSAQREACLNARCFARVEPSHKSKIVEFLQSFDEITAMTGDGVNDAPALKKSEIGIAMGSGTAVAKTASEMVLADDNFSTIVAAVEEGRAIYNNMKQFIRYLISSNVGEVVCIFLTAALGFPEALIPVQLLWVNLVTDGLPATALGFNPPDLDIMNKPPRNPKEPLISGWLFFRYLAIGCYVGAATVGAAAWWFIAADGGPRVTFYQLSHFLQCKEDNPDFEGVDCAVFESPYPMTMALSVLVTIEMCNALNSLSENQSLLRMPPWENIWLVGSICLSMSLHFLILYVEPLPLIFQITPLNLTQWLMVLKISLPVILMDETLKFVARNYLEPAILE
T2 sequence (P61013 whole entry partner): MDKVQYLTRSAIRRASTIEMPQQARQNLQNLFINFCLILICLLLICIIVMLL
Sequence of RFP-PLB (tagRFP fused to the N-terminus of a monomeric mutant of human phospholamban) (P26678 whole entry C36A/C46A, change not shown, the tested form may be a part): as the sequence (P61013 whole entry partner) above, with D2E, N27K, C36A, C46A counted along it
Sequence of GFP-SERCA2a (eGFP fused to the N-terminus of human cardiac sarcoplasmic reticulum Ca-ATPase SERCA2a) (human) (P16615 other isoform, or with tags, fused parts or gaps): as the sequence (P11607 1-997 isoform P11607-2) above, with K371R, K403N, P538S, M570L, N576H, E667D, S713A, T865S, V889I, L963V counted along it
Sequence of SERCA2a-PLB complex (GFP-SERCA2a / RFP-PLB in HEK293 cells) (P16615 1-997 isoform P16615-2, stated change not applied): as the sequence (P11607 1-997 isoform P11607-2) above, with K371R, K403N, P538S, M570L, N576H, E667D, S713A, T865S, V889I, L963V counted along it
Sequence of SERCA2a-PLB complex (GFP-SERCA2a / RFP-PLB in HEK293 cells) (P26678 whole entry C36A/C41F/C46A): as the sequence (P61013 whole entry partner) above, with D2E, N27K, C36A, C41F, C46A counted along it
T1 sequence (P04191 1-994 isoform P04191-2): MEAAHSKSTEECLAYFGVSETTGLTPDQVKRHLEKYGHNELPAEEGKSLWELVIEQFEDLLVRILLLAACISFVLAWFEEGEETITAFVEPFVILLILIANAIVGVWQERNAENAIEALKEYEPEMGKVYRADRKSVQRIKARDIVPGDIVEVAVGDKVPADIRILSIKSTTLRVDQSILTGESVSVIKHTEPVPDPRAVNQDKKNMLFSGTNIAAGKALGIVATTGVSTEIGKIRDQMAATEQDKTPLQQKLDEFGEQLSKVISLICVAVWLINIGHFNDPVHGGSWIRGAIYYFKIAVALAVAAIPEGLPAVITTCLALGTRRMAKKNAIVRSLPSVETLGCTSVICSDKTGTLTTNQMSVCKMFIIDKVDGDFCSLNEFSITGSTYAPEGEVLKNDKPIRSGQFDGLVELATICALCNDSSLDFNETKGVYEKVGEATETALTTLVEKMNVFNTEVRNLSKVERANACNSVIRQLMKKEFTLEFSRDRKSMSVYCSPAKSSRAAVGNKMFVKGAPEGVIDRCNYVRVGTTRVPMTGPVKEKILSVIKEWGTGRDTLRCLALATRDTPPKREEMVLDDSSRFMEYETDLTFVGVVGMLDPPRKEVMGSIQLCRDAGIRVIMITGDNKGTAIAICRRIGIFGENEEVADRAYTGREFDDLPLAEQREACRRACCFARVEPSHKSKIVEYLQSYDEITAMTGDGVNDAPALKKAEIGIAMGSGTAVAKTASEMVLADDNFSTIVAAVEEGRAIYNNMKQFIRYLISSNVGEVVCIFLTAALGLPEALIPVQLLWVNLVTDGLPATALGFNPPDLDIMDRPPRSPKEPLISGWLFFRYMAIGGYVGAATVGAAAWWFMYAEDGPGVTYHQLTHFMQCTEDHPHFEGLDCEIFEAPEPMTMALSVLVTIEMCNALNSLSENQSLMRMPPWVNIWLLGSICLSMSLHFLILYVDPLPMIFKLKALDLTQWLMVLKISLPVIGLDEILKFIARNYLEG

Compound	EC50 [1]	Vmax @ 30 µM [1] [i.u.]	ΔVmax @ 30 µM [1] [%]	ΔFLT ([2]; final concentration 10 µM) [ps]	ΔFLT ([2]; final concentration 100 µM) [ps]	EC50 [2, 7] [µM]	Vmax @ 30 µM ([3]; CSR) [i.u.]	ΔVmax @ 30 µM ([3]; CSR) [%]	EC50 ([3]; CSR, read-out: EC50 Vmax) [µM]	percent change in Vmax vs DMSO control at 30 µM [1] [%]	further results
CN=c1nc(-c2ccccc2)n(-c2ccccc2)s1 [SCH 202676]	0.9 µM	0.07	-97.3	36	35	1.8	0.22	-68.2	1.4		decrease of Vmax ([1]; skeletal SR): 97%; direction of FRET change of the SERCA2a-PLB biosensor [2]: decrease in FRET; decrease of Vmax ([3]; cardiac SR): 68%
CC1=C(/C=C/C(C)=C/C=C/C(C)=C/C(=O)O)C(C)(C)CCC1 [Retinoic Acid]		2.34		27	-31	65.5	0.42	-37.8	11.2	-10.6	
O=C(Nc1cccnc1)N1CCC(Cc2cccc(Oc3ccc(C(F)(F)F)cn3)c2)CC1 [PF3845]		2.61		30	38		0.48	-28.3		-0.2	EC50 [2]: 3.2 µM
COC(=O)c1c(C)[nH]c(C)c1C(=O)c1ccccc1Cc1ccccc1 [FPL 64176]		2.64	0.7	19	47	> 100	0.52	-23.0			
Oc1ccc(/C=C/c2ccc(/C=C/c3ccc(O)cc3)c(Br)c2)cc1 [K114]	3.53 µM	0.32	-87.9	-16	-102	41.3	0.11	-83.7	6.7		
CCOc1nc2cccc(C(=O)OC(C)OC(=O)OC3CCCCC3)c2n1Cc1ccc(-c2ccccc2-c2nnn[nH]2)cc1 (stereo not shown) [Candesartan cilexetil]	7.42 µM	0.41		70	181	20.1	0.17	-75.3	11.7	-84.5	
Clc1ccc(C(c2ccc(Cl)cc2)n2cc[n+](CC(OCc3ccc(Cl)cc3Cl)c3ccc(Cl)cc3Cl)c2)cc1 (stereo not shown) [Calmidazolium]	7.43 µM	0.01		45	-192	26.3	0.08	-88.7	15.9	-99.5	
CCc1ccc(/C=C2/SC(=S)NC2=O)cc1 [10058-F4]		2.63	0.5	17	-11		0.63	-7.5			
CNC(=O)c1cc2c(cn1)[nH]c1ccccc12 [FG7142]		2.63	0.5	4	10		0.67	-0.7			
RFP-PLB (tagRFP fused to the N-terminus of a monomeric mutant of human phospholamban) (from UniProt P26678 1-52) (natural protein)											FRET efficiency E [4]: 0.11; maximum FRET efficiency E [5]: 0.103; FRET efficiency E [6]: 0.14
Cc1[nH]c(=O)c(C#N)cc1-c1ccc2nccn2c1 [Olprinone]		2.70		36	254	> 100	0.68	-0.1		3	
CCCCCCCCCCCCCCCC(=O)OC(CC(=O)O)C[N+](C)(C)C.[Cl-] (racemic) [Palmitoyl-DL-carnitine chloride]	12.2 µM	0.57	-78.1	50	189	24.9	0.22	-67.1	16.1		
NC(=O)N1C(=O)/C(=C(\O)c2cccs2)c2cc(Cl)ccc21 [Tenidap]		2.66		8	-68		0.66	-1.7		1.8	EC50 [2]: > 100 µM
CN1CCC[C@@H]1Cc1c[nH]c2ccc(Nc3ncccc3[N+](=O)[O-])cc12 [CP-135807]		2.67	2.1	-70	-390	> 100	0.65	-3.8			
C=C(C)[C@H]1Cc2c(ccc3c2O[C@@H]2COc4cc(OC)c(OC)cc4[C@@H]2C3=O)O1 [Rotenone]		2.64					0.53	-22.0		0.7	
O=C(c1cc(O)c(O)c([N+](=O)[O-])c1)c1ccccc1F [Ro 41-0960]	9.78 µM	1.44	-45.1	-26	-152	22.5	0.53	-20.9			effect on Ca affinity in skeletal SR ([1]; even at the highest compound concentrations): no effect; direction of FRET change of the SERCA2a-PLB biosensor [2]: increase in FRET; EC50 ([3]; cardiac SR (SERCA2a + PLB), read-out: EC50 of the increase in Ca affinity (pKCa)): 23 µM; increase of Ca-ATPase activity at pCa 6.4 ([3]; cardiac SR, pCa 6.4, 24 µM compound): 44%; Ca affinity (pKCa) in cardiac SR with compound ([3]; increased from 6.05 (control), concentration-dependent, up to 64 µM): 6.45
Brc1c(Br)c(Br)c2n[nH]nc2c1Br [TBB]		2.66	1.6	31	63	73.2	0.49	-27.2			
CC(C)(C)c1ccc(/C=C/C(=O)Nc2ccc3c(c2)OCCO3)cc1 [AMG9810]		2.62	0.1	6	-1		0.68	0.1			
CCCCN(CC)c1nc(C)nc2c1c(C)cn2-c1c(C)cc(C)cc1C [CP 154526]	2.5 µM and 2.47 µM	3.40		48	185	9.3	0.91	34.4	1	35	increase of Vmax ([1]; skeletal SR): 35%; direction of FRET change of the SERCA2a-PLB biosensor [2]: decrease in FRET; increase of Vmax ([3]; cardiac SR): 34%
